The results in this text go back to US20220125771A1, “S[…], ANALOGUES THEREOF, AND METHODS USING SAME” (priority 2019, published 2022).

SMILES strings stand for the structures.

The subject of one test is HBsAg in HepG2.2.15 cells. In words: HBsAg Assay: inhibition of HBsAg in HepG2.2.15 cells (CLIA immunoassay of supernatant). It is filed as cell-based, hepatitis B virus. The settings on record: Hepatitis B virus, HepG2.2.15, 144 h, read-out: sAg EC50, μM, HepG2.2.15 cells; supernatant collected at day 6 after exposure of compounds; final DMSO 0.5%. Here is the method: Inhibition of HBsAg was determined in HepG2.2.15 cells. Cells were maintained in culture medium containing 10% fetal calf serum, […], Glutamine, penicillin/streptomycin. Cells were seeded in 96-well collagen-coated plate at a density of 30,000 cells/well. Serially diluted compounds were added to cells next day at the final DMSO concentration of 0.5%. Cells were incubated with compounds for 2-3 days, after which medium was removed. Fresh medium containing compounds was added to cells for additional 3-4 days. At day 6 after exposure of compounds, supernatant was collected, the HBsAg immunoassay (microplate-based chemiluminescence immunoassay kits, CLIA, Autobio Diagnosics Co., Zhengzhou, China, Catalog #CL0310-2) was used to determine the level of HBsAg according to manufactory instruction. Dose-response curves were generated and the EC50 value (effective concentrations that achieved 50% inhibitory effect) were determined using XLfit software. In addition, cells were seeded at a density of 5,000 cells/well for determination of cell viability in the presence and absence of compounds by using CellTiter-Glo reagent (Promega). Tables 1-3 show EC50 values obtained by the HBsAg assay for selected compounds.
As to `CC(C)(C)C1Cn2c(nc3c(OC(F)F)cccc32)-c2[nH]c(=O)c(C(=O)O)cc21` (centres unmarked) [Example 26, 5-(tert-Butyl)-11-(difluoromethoxy)-2-oxo-1,2,5,6-tetrahydrobenzo[4,5]imidazo[1,2-h][1,7]naphthyridine-3-carboxylic Acid], the EC50 was 0.057 µM.
The same measure, in the same setting: next, `CC(C)(C)C1Cc2c(cc(OC(F)F)c3ncccc23)-c2[nH]c(=O)c(C(=O)O)c(O)c21` (centres unmarked) [Example 29, 6-(tert-Butyl)-12-(difluoromethoxy)-7-hydroxy-9-oxo-5,6,9,10-tetrahydroquinolino[7,8-f]quinoline-8-carboxylic Acid]: 0.001 µM.
Same read-out and setting: then `CCOc1cccc2c1cc1n2CC(C(C)(C)C)c2c-1[nH]c(=O)c(C(=O)O)c2O` (centres unmarked) [Example 5, 5-(tert-Butyl)-11-ethoxy-4-hydroxy-2-oxo-1,2,5,6-tetrahydroindolo[1,2-h]naphthyridine-3-carboxylic Acid], with 0.13 µM.
`CC(C)(C)C1Cn2c(cc3c(OC(F)F)cccc32)-c2[nH]c(=O)c(C(=O)O)c(O)c21` (centres unmarked) [Example 1, 5-(tert-Butyl)-11-(difluoromethoxy)-4-hydroxy-2-oxo-1,2,5,6-tetrahydroindolo[1,2-h][1,7]naphthyridine-3-carboxylic Acid]: the EC50 was determined as 0.009 µM.
Still for that read-out and setting: then `CC(C)(C)C1Cc2c(cc(OC(F)F)c3c2CCCN3)-c2[nH]c(=O)c(C(=O)O)c(O)c21` (centres unmarked) [Example 9, 6-(tert-Butyl)-12-(difluoromethoxy)-7-hydroxy-9-oxo-1,2,3,4,5,6,9,10-octahydroquinolino[7,8-f]quinoline-8-carboxylic Acid], with 0.011 µM; and `COc1cccc2c1cc1n2CC(C(C)(C)C)c2c-1[nH]c(=O)c(C(=O)O)c2O` (centres unmarked) [Example 4, 5-(tert-Butyl)-4-hydroxy-11-methoxy-2-oxo-1,2,5,6-tetrahydroindolo[1,2-h][1,7]naphthyridine-3-carboxylic Acid], with 0.13 µM.
With `COCCCN1CCCc2c3c(cc(OC(F)F)c21)-c1[nH]c(=O)c(C(=O)O)cc1C(C(C)(C)C)C3` (centres unmarked) [Example 30, 6-(tert-Butyl)-12-(difluoromethoxy)-1-(3-methoxypropyl)-9-oxo-1,2,3,4,5,6,9,10-octahydroquinolino[7,8-f]quinoline-8-carboxylic Acid], the EC50 stood at 0.2 µM.
As to `CC(=O)N1CCCc2c3c(cc(OC(F)F)c21)-c1[nH]c(=O)c(C(=O)O)cc1C(C(C)(C)C)C3` (centres unmarked) [Example 31, 1-Acetyl-6-(tert-butyl)-12-(difluoromethoxy)-9-oxo-1,2,3,4,5,6,9,10-octahydroquinolino[7,8-f]quinoline-8-carboxylic Acid], the EC50 is 0.05 µM.

The test is the same for the next values; noted with them: read-out: sAg EC50; HepG2.2.15 cells; supernatant collected at day 6 after exposure of compounds; final DMSO 0.5%.
Regarding `CC(C)(C)C1Cc2c(cc(OC(F)F)c3ncccc23)-c2[nH]c(=O)c(C(=O)O)cc21` (single isomer, unassigned) [Example 37, 6-(tert-Butyl)-12-(difluoromethoxy)-9-oxo-5,6,9,10-tetrahydroquinolino[7,8-f]quinoline-8-carboxylic Acid], the 50% effective concentration (EC50) came to 0.003 µM.
Take `COc1ccn2c3c(nc2c1OC)-c1[nH]c(=O)c(C(=O)O)cc1C(C(C)(C)C)C3` (single isomer, unassigned) [Example 19, 5-(tert-Butyl)-10,11-dimethoxy-2-oxo-1,2,5,6-tetrahydropyrido[2′,1′:2,3]imidazo[4,5-h]quinoline-3-carboxylic Acid]: the EC50 was 8 µM.
Take `CC(C)(C)C1Cc2c(nc3c(OC(F)F)cccn23)-c2[nH]c(=O)c(C(=O)O)c(O)c21` (single isomer, unassigned) [Example 7, 5-(tert-Butyl)-11-(difluoromethoxy)-4-hydroxy-2-oxo-1,2,5,6-tetrahydropyrido[2′,1′:2,3]imidazo[4,5-h]quinoline-3-carboxylic Acid]: the EC50 came out at 0.002 µM.
Same read-out and setting: then `CC(C)(C)C1Cn2c(cc3c(OC(F)F)cccc32)-c2[nH]c(=O)c(C(=O)O)c(O)c21` (single isomer, unassigned) [Example 2, 5-(tert-Butyl)-11-(difluoromethoxy)-4-hydroxy-2-oxo-1,2,5,6-tetrahydroindolo[1,2-h][1,7]naphthyridine-3-carboxylic Acid], with 1 µM; and `CC(C)(C)C1Cc2c(cc(OC(F)F)c3ncccc23)-c2[nH]c(=O)c(C(=O)O)cc21` (single isomer, unassigned) [Example 38, 6-(tert-butyl)-12-(difluoromethoxy)-9-oxo-5,6,9,10-tetrahydroquinolino[7,8-f]quinoline-8-carboxylic Acid], with 3 µM.
As for `COc1cccn2c3c(nc12)-c1[nH]c(=O)c(C(=O)O)cc1C(C(C)(C)C)C3` (single isomer, unassigned) [Example 14, 5-(tert-Butyl)-11-methoxy-2-oxo-1,2,5,6-tetrahydropyrido[2′,1′:2,3]imidazo[4,5-h]quinoline-3-carboxylic Acid], the EC50 came to 0.012 µM.
Same read-out and setting: then `COc1ccn2c3c(nc2c1OC)-c1[nH]c(=O)c(C(=O)O)cc1C(C(C)(C)C)C3` (single isomer, unassigned) [Example 18, 5-(tert-Butyl)-10,11-dimethoxy-2-oxo-1,2,5,6-tetrahydropyrido[2′,1′:2,3]imidazo[4,5-h]quinoline-3-carboxylic Acid], with 0.005 µM.
Still for that read-out and setting: then `COc1cccn2c3c(nc12)-c1[nH]c(=O)c(C(=O)O)cc1C(C(C)C)C3` (single isomer, unassigned) [Example 16, 5-Isopropyl-11-methoxy-2-oxo-1,2,5,6-tetrahydropyrido[2′,1′:2,3]imidazo[4,5-h]quinoline-3-carboxylic Acid], with 0.048 µM; and `COc1ccn2c3c(nc2c1OC)-c1c(cc(C(=O)O)c(=O)n1C)C(C(C)(C)C)C3` (single isomer, unassigned) [Example 22, 5-(tert-Butyl)-10,11-dimethoxy-1-methyl-2-oxo-1,2,5,6-tetrahydropyrido[2′,1′:2,3]imidazo[4,5-h]quinoline-3-carboxylic Acid], with 0.11 µM.
`Cn1c2c(cc(C(=O)O)c1=O)C(C(C)(C)C)Cc1c-2nc(Cl)c2ccccc12` (single isomer, unassigned) [Example 44, 12-(tert-Butyl)-6-chloro-4-methyl-3-oxo-3,4,11,12-tetrahydrobenzo[c][1,10]phenanthroline-2-carboxylic Acid]: the EC50 was determined as 0.009 µM.
For `COc1cccc2c1nc1n2CC(C(C)(C)C)c2cc(C(=O)O)c(=O)[nH]c2-1` (single isomer, unassigned) [Example 28, 5-(tert-Butyl)-11-methoxy-2-oxo-1,2,5,6-tetrahydrobenzo[4,5]imidazo[1,2-h][1,7]naphthyridine-3-carboxylic Acid], the EC50 is 0.093 µM.
In the case of `COc1cc2c(c3cccnc13)CC(C(C)(C)C)c1cc(C(=O)O)c(=O)[nH]c1-2` (single isomer, unassigned) [Example 36, 6-(tert-Butyl)-12-methoxy-9-oxo-5,6,9,10-tetrahydroquinolino[7,8-f]quinoline-8-carboxylic Acid], the EC50 is 5.2 µM.
With `CN1CCCc2c3c(cc(OC(F)F)c21)-c1[nH]c(=O)c(C(=O)O)cc1C(C(C)(C)C)C3` (single isomer, unassigned) [Example 32, 6-(tert-Butyl)-12-(difluoromethoxy)-1-methyl-9-oxo-1,2,3,4,5,6,9,10-octahydroquinolino[7,8-f]quinoline-8-carboxylic Acid], the EC50 worked out at 0.002 µM.
With `CC(C)(C)C1Cn2c(cc3c(OC(F)F)cccc32)-c2[nH]c(=O)c(C(=O)O)c(O)c21` (single isomer, unassigned) [Example 3, 5-(tert-Butyl)-11-(difluoromethoxy)-4-hydroxy-2-oxo-1,2,5,6-tetrahydroindolo[1,2-h][1,7]naphthyridine-3-carboxylic Acid], the EC50 worked out at 0.005 µM.
Consider `COc1ccn2c3c(nc2c1OC)-c1c(cc(C(=O)O)c(=O)n1C)C(C(C)(C)C)C3` (single isomer, unassigned) [Example 23, 5-(tert-butyl)-10,11-dimethoxy-1-methyl-2-oxo-1,2,5,6-tetrahydropyrido[2′,1′:2,3]imidazo[4,5-h]quinoline-3-carboxylic Acid], for which the EC50 was found to be 0.011 µM.
On to `COc1nc2c(c3ccccc13)CC(C(C)(C)C)c1cc(C(=O)O)c(=O)[nH]c1-2` (single isomer, unassigned) [Example 41, 12-(tert-Butyl)-6-methoxy-3-oxo-3,4,11,12-tetrahydrobenzo[c][1,10]phenanthroline-2-carboxylic Acid], for which the EC50 was determined as 0.001 µM.
Same read-out and setting: next, `Cn1c2c(cc(C(=O)O)c1=O)C(C(C)(C)C)Cc1c-2cc(OC(F)F)c2ncccc12` (single isomer, unassigned) [Example 40, 6-(tert-Butyl)-12-(difluoromethoxy)-10-methyl-9-oxo-5,6,9,10-tetrahydroquinolino[7,8-f]quinoline-8-carboxylic Acid]: 0.2 µM.
As to `COc1nc2c(c3ccccc13)CC(C(C)(C)C)c1cc(C(=O)O)c(=O)[nH]c1-2` (single isomer, unassigned) [Example 42, 12-(tert-Butyl)-6-methoxy-3-oxo-3,4,11,12-tetrahydrobenzo[c][1,10]phenanthroline-2-carboxylic Acid], the EC50 turned out to be 0.075 µM.
